Here are results for 1 compound from ChEMBL document CHEMBL5137036, “Design and synthesis of highly TRAIL expression HDAC inhibitors based on ONC201 to promote apoptosis of colorectal cancer” (Eur J Med Chem, 2022).

Active and inactive are the calls of the source. The rule behind the calls is not given here.

For orientation: IC50 means the midpoint of a concentration-inhibition curve. A lower IC50 goes with greater potency in that assay.

In series [1] the test system is HCT-116. Description: Induction of apoptosis in human HCT-116 cells assessed as viable cells at 0.25 uM incubated for 24 hrs by AnnexinV-FITC/PI staining based flow cytometry (reference value: 93.64%). It counts as functional. As to conditions: read-out: Activity.
Series [2] concerns HCT-116. The series is described as follows: Induction of apoptosis in human HCT-116 cells assessed as decrease in Bcl2 protein expression incubated for 12 hrs by Western blot analysis. It counts as functional, cell-based. As to conditions: dose 0.125-0.5 µM, DDE = dose-dependent effect. In general terms: A western blot detects proteins with antibodies after separation by electrophoresis.

The target in series [3] is Histone deacetylase 3/Nuclear receptor corepressor 2 (HDAC3/NCoR2) (Homo sapiens, UniProt O15379). The series is described as follows: Inhibition of human HDAC3/NcoR2 using RHKKAc fluorogenic peptide as substrate preincubated for 10 mins followed by substrate addition by fluorescence based analysis. It counts as protein-complex assay.
Chain of Histone deacetylase 3/Nuclear receptor corepressor 2 (HDAC3/NCoR2) (O15379 whole entry): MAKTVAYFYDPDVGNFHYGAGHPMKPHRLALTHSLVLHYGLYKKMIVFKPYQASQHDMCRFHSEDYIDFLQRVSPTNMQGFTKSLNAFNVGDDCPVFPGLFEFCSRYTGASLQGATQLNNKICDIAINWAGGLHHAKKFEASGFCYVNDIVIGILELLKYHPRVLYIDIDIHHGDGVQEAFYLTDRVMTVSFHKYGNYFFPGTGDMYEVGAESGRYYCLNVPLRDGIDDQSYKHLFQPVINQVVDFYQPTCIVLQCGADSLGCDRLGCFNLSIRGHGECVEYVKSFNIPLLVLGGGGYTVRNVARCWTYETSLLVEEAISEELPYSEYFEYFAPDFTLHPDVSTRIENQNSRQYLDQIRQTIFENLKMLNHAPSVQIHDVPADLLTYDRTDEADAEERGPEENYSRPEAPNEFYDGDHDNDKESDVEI
Chain of Histone deacetylase 3/Nuclear receptor corepressor 2 (HDAC3/NCoR2) (Q9Y618 whole entry, further chain): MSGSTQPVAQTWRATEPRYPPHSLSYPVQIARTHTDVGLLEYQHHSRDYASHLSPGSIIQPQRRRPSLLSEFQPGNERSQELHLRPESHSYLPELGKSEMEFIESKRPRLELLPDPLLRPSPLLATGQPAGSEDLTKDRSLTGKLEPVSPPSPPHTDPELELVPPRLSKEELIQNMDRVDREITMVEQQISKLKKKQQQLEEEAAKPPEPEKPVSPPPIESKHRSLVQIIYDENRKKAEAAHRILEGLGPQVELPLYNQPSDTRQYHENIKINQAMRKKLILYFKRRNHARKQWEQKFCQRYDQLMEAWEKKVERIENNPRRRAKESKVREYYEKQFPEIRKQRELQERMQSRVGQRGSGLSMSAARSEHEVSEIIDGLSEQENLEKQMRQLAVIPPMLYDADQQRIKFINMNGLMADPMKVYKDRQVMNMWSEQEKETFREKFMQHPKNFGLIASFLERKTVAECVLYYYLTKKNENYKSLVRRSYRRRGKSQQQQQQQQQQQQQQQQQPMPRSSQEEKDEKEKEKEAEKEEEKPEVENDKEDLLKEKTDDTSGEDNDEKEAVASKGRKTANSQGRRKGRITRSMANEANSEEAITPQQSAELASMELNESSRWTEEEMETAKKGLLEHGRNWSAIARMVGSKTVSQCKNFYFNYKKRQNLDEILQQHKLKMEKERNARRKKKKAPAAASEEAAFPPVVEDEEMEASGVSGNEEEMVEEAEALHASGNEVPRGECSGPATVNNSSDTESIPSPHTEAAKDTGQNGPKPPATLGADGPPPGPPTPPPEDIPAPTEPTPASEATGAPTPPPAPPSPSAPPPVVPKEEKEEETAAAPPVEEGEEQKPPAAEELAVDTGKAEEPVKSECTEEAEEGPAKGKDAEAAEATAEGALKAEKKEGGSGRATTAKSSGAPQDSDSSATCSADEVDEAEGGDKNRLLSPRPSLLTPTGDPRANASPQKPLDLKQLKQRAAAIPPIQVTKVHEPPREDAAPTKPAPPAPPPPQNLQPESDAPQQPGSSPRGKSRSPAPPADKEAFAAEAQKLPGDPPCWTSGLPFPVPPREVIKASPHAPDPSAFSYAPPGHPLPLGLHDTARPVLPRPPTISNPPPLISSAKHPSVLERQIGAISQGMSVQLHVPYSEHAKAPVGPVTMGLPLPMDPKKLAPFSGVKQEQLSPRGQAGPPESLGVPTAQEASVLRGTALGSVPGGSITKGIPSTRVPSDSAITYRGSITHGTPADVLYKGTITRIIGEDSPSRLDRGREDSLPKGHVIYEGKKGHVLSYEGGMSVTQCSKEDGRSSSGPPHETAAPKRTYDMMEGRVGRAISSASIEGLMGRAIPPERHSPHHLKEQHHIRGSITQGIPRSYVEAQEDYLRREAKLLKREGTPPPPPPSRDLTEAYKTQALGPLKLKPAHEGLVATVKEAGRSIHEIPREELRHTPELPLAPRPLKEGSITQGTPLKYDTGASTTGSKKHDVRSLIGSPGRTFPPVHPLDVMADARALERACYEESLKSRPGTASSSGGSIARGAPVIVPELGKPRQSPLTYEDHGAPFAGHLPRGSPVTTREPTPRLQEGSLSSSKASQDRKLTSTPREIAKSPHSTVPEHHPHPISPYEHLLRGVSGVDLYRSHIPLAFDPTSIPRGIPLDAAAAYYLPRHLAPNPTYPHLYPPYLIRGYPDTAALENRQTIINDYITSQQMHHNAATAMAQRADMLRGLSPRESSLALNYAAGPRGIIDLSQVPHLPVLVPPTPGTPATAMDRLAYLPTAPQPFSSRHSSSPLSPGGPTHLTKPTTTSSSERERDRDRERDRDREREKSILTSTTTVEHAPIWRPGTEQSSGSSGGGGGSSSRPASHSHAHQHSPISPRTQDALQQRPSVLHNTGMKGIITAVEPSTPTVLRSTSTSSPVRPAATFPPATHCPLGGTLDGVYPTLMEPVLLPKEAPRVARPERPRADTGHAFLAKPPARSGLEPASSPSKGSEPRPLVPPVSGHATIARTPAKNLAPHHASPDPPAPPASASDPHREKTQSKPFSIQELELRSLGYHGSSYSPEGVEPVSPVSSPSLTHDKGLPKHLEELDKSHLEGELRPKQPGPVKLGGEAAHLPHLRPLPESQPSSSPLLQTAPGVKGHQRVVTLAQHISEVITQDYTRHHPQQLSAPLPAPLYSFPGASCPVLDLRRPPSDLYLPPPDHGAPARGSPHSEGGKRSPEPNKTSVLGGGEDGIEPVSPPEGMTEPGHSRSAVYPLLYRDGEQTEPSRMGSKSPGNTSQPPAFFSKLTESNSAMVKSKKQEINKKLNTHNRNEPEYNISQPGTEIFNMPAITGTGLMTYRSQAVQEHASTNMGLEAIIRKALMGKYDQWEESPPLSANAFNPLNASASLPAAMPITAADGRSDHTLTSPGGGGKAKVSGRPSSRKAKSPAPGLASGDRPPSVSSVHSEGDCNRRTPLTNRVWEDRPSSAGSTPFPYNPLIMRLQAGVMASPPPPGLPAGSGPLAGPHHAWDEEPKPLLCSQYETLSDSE
Series [4] deals with HCT-116. The series is described as follows: Induction of apoptosis in human HCT-116 cells assessed as viable cells at 0.5 uM incubated for 24 hrs by AnnexinV-FITC/PI staining based flow cytometry (reference value: 93.64%). The series is classed as functional. As to conditions: read-out: Activity. In general terms: In flow cytometry, cells or beads pass a laser one at a time.

In series [5] the test system is HCT-116. The series is described as follows: Induction of apoptosis in human HCT-116 cells assessed as late apoptotic cells at 0.5 uM incubated for 24 hrs by AnnexinV-FITC/PI staining based flow cytometry (reference value: 0.82 %). It counts as functional.
Series [6] deals with HCT-116. The series is described as follows: Induction of apoptosis in human HCT-116 cells assessed as early apoptotic cells at 0.25 uM incubated for 24 hrs by AnnexinV-FITC/PI staining based flow cytometry (reference value: 0.93 %). It counts as functional.
A further series concerns the target T1, Histone deacetylase 8 (Homo sapiens, UniProt Q9BY41).
T1 sequence (Q9BY41 whole entry): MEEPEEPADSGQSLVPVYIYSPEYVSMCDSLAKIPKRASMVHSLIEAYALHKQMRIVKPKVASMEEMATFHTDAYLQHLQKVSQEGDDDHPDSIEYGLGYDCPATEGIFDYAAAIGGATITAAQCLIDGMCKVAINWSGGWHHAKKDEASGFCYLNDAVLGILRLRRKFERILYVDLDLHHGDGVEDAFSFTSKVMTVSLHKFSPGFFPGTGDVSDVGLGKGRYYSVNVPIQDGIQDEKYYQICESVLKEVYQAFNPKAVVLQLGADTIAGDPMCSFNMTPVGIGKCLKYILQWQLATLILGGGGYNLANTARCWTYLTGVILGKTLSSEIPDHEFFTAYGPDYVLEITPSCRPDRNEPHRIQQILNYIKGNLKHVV
The series is described as follows: Inhibition of human HDAC8 using RHKAcKAc as fluorogenic substrate preincubated for 10 mins followed by substrate addition by fluorescence based analysis.

For series [7], the target named is T2, Histone deacetylase 1 (Homo sapiens, UniProt Q13547). Description: Inhibition of HDAC1 in human HCT-116 cells assessed as increase in TRAIL protein expression at 0.5 uM incubated for 12 hrs by Western blot analysis. The series is classed as cell-based.
T2 sequence (Q13547 whole entry): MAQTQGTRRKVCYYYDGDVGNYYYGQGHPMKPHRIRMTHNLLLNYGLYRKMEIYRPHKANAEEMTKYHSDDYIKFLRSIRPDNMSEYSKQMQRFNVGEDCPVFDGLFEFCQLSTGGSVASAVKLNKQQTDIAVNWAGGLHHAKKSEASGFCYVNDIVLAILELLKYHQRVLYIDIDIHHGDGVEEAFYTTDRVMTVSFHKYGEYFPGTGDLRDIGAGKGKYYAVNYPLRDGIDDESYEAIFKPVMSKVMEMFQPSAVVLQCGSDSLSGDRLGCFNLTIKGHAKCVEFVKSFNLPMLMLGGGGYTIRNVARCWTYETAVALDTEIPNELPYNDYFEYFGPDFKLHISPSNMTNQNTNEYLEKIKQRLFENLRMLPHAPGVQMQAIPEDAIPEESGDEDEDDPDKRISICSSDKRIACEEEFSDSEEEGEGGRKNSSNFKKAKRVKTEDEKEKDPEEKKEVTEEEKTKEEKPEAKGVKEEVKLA
Series [8] can be described thus: Toxicity in BALB/c mouse xenografted with human HCT-116 cells assessed as reduction in body weight at 12.5 to 25 mg/kg, po qd administered for 3 weeks. It counts as organism-based. The following applies: in vivo, 504 h, dose 12.5-25 mg/kg. (Xenograft models place foreign cells or tissue in a host animal.)
For series [9], the system named is HCT-116. Description: Effect on ac-H3 protein expression in human HCT-116 cells incubated for 12 hrs by Western blot analysis. It counts as functional, cell-based. As to conditions: dose 0.125-0.5 µM, DDE = dose-dependent effect.
In series [10] the target is T2, Histone deacetylase 1. The series is described as follows: Inhibition of human HDAC1 using RHKKAc fluorogenic peptide as substrate preincubated for 10 mins followed by substrate addition by fluorescence based analysis.
Series [11] deals with HCT-116. The series is described as follows: Induction of apoptosis in human HCT-116 cells assessed as early apoptotic cells at 0.5 uM incubated for 24 hrs by AnnexinV-FITC/PI staining based flow cytometry (reference value: 0.93 %). It counts as functional.
In series [12] the test system is HCT-116. The series is described as follows: Induction of cell cycle arrest in human HCT-116 cells assessed as accumulation of cells at S phase incubated for 12 hrs by propidium iodide staining based flow cytometric analysis. It counts as functional. The following applies: dose 0.125-0.5 µM, DDE = dose-dependent effect.
Series [13] in a line: Toxicity in BALB/c mouse xenografted with human HCT-116 cells assessed as morphological changes in kidney at 12.5 to 25 mg/kg, po qd administered for 21 days by H & E staining based microscopic analysis. It counts as organism-based. The following applies: in vivo, 504 h, dose 12.5-25 mg/kg, time 21 day.

Consider `COc1ccccc1CN1C(=O)C2=C(CCN(Cc3ccc(C(=O)Nc4ccccc4N)cc3)C2)N2CCN=C12`, for which the viability at 0.25 µM in the series on HCT-116 [1] came out at 93%. In addition, the Activity result was “Dde” in the series with HCT-116 [2]; 2% in the series with HCT-116 [5]; 1.18% with HCT-116 [6]; “Non-Toxic” in series [8]; “Dde” with HCT-116 [9]; 1.22% in the series on HCT-116 [11]. The Activity entry in the series on HCT-116 [12] was “Dde”; in series [13] it was “Non-Toxic”. Further, the IC50 in [3] is 589 nM; on Histone deacetylase 8, more than 10000 nM; on Histone deacetylase 1 [10], 156 nM. The viability at 0.5 µM in the series with HCT-116 [4] stood at 87.2%. The inhibition entry on Histone deacetylase 1 [7] was “Active”.
